Data on 84 compounds can be found in PubChem BioAssay AID493058 (The Scripps Research Institute Molecular Screening Center, 2011).

Calls of active or inactive are those of the source.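 Rule for the calls: active = EC50 of 10 µM or lower; inactive = EC50 above 10 µM.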

Usually EC50 stands for the midpoint of the concentration-response curve.

The experiment deals with DHL10 Bax/Bak-deficient cells, cytotoxicity, MTS absorbance. The experiment in a line: DHL10 Bax/Bak-null cell killing – MTS absorbance, EC50, counter-screen for MCL1-BIM inhibitor project, late-stage follow-up (AID 493058). (A counterscreen serves to expose hits that act by an unwanted route or on another target.)
With `COc1ccc(Cc2nnc(NC(=O)Cc3cccnc3)s2)cc1OC`, the EC50 is > 25 µM (inactive).

With `COc1ccc(Cc2nnc(NC(=O)C(F)c3ccccc3)s2)cc1OC` (centres undefined), the EC50 was > 25 µM (inactive).

With `COc1ccc(NC(=O)c2cc(-c3ccc(C)o3)nc3ccccc23)cc1OC`, the EC50 was > 25 µM (inactive).

Turning to `COc1ccc(-c2cc(=O)oc3cc(OCC(=O)N4CC4)ccc23)cc1`, the EC50 was > 25 µM (inactive).

Consider `Cc1ccnc(NC(=O)c2cc(-c3ccco3)nc3ccc(Br)cc23)c1`, for which the EC50 was > 25 µM (inactive).

Consider `CCCCN(C(=O)c1cc(-c2ccco2)nc2ccccc12)c1c(N)n(CCCC)c(=O)[nH]c1=O`, for which the EC50 was > 25 µM (inactive).

Consider `Cc1ccc(NC(=O)c2cc(-c3ccco3)nc3ccccc23)cc1S(=O)(=O)N1CCOCC1`, for which the EC50 was > 25 µM (inactive).

In the case of `Cc1ccc(-c2cc(C(=O)NCCN3CCOCC3)c3ccccc3n2)o1`, the EC50 is > 25 µM (inactive).

With `O=C(CCn1nnc2ccccc21)Nc1nnc(Cc2ccccc2)s1`, the EC50 is > 25 µM (inactive).

Regarding `COc1ccc(NC(=O)c2cc(-c3ccc(C)o3)nc3ccccc23)cc1`, the EC50 was > 25 µM (inactive).

Turning to `O=C(c1cc(-c2ccco2)nc2ccccc12)N1CCCC(C(F)(F)F)C1` (centres undefined), the EC50 is > 25 µM (inactive).

For the compound `CN(C)C(CNC(=O)c1cc(-c2ccco2)nc2ccccc12)c1ccccc1` (centres undefined), the EC50 is > 25 µM (inactive).

Consider `COc1ccc(Cc2nnc(NC(=O)Cc3c[nH]c4ccccc34)s2)cc1OC`, for which the EC50 is > 25 µM (inactive).

Consider `Cc1ccc(NC(=O)c2cc(-c3ccc(C)o3)nc3ccccc23)cc1`, for which the EC50 was > 25 µM (inactive).

In the case of `COc1ccc(NC(=O)CN(C)C(=O)c2cc(-c3ccc(C)o3)nc3ccccc23)cc1`, the EC50 was > 25 µM (inactive).

As for `CCCCn1c(N)c(N(CCC(C)C)C(=O)c2cc(-c3ccco3)nc3ccccc23)c(=O)[nH]c1=O`, the EC50 was > 25 µM (inactive).

`COc1ccccc1NC(=O)c1cc(-c2ccc(C)o2)nc2ccccc12`: the EC50 was > 25 µM (inactive).

As to `COc1ccccc1CC(=O)Nc1nnc(Cc2ccc(OC)c(OC)c2)s1`, the EC50 was > 25 µM (inactive).

`CCOC(=O)c1cc(-c2ccco2)nc2c1c(C)nn2-c1ccccc1`: the EC50 was > 25 µM (inactive).

As for `COc1ccc(Cc2nnc(NC(=O)Cc3ccc4c(c3)OCO4)s2)cc1OC`, the EC50 is > 25 µM (inactive).

On to `Cc1ccc2nc(NC(=O)c3cc(-c4ccco4)nc4ccccc34)sc2c1`, for which the EC50 is > 25 µM (inactive).

For the compound `CN(CCOc1ccccc1)C(=O)c1cc(-c2ccco2)nc2ccccc12`, the EC50 is > 25 µM (inactive).

`CCCC(=O)Nc1nnc(Cc2ccccc2)s1`: the EC50 is > 25 µM (inactive).

Take `Cc1csc(NC(=O)c2cc(-c3ccco3)nc3ccccc23)n1`: the EC50 is > 25 µM (inactive).

As to `O=C(Cc1cccs1)Nc1nnc(Cc2ccccc2)s1`, the EC50 is > 25 µM (inactive).

On to `COc1ccc(Cc2nnc(NC(=O)Cc3ccncc3)s2)cc1OC`, for which the EC50 is > 25 µM (inactive).

On to `CCCCN(C(=O)c1cc(-c2ccco2)nc2ccccc12)c1c(N)n(CCC)c(=O)[nH]c1=O`, for which the EC50 is > 25 µM (inactive).

For `Cc1cccc(NC(=O)c2cc(-c3ccc(C)o3)nc3ccccc23)n1`, the EC50 was > 25 µM (inactive).

For the compound `O=C(Nc1nncs1)c1cc(-c2ccco2)nc2ccccc12`, the EC50 was > 25 µM (inactive).

Turning to `O=C(NCC1CCCO1)c1cc(-c2ccco2)nc2ccccc12` (centres undefined), the EC50 was > 25 µM (inactive).

Consider `CN(CCOc1ccc(Cl)cc1)C(=O)c1cc(-c2ccco2)nc2ccccc12`, for which the EC50 is > 25 µM (inactive).

With `O=C(Nc1cccc(S(=O)(=O)NC2=NCCCCC2)c1)c1cc(-c2ccco2)nc2ccccc12`, the EC50 was > 25 µM (inactive).

As to `O=C(Nc1nccs1)c1cc(-c2ccco2)nc2ccccc12`, the EC50 was > 25 µM (inactive).

With `O=C(Nc1ccc(F)cc1F)c1cc(-c2ccco2)nc2ccccc12`, the EC50 was > 25 µM (inactive).

`CCc1nnc(NC(=O)c2cc(-c3ccc(C)o3)nc3ccccc23)s1`: the EC50 is > 25 µM (inactive).

In the case of `Cc1nnc(NC(=O)c2cc(-c3ccco3)nc3ccccc23)s1`, the EC50 was > 25 µM (inactive).

On to `CCOC(=O)C1CCCN(C(=O)c2cc(-c3ccco3)nc3ccccc23)C1` (centres undefined), for which the EC50 is > 25 µM (inactive).

Turning to `CCCN(C(=O)c1cc(-c2ccco2)nc2ccccc12)c1c(N)n(Cc2ccccc2)c(=O)[nH]c1=O`, the EC50 was > 25 µM (inactive).

Consider `COCCCN(C(=O)c1cc(-c2ccco2)nc2ccccc12)c1c(N)n(Cc2ccccc2)c(=O)[nH]c1=O`, for which the EC50 was > 25 µM (inactive).

As for `CC(=O)N1CCN(C(=O)c2cc(-c3ccc(C)o3)nc3ccccc23)CC1`, the EC50 is > 25 µM (inactive).

For the compound `Cc1ccc(-c2cc(C(=O)N3CCN(c4ncccn4)CC3)c3cc(Br)ccc3n2)o1`, the EC50 was > 25 µM (inactive).

`CCN1CCN(C(=O)c2cc(-c3ccco3)nc3ccccc23)CC1`: the EC50 was > 25 µM (inactive).

Consider `COc1ccc(NC(=O)c2cc(-c3ccc(C)o3)nc3ccccc23)c(OC)c1`, for which the EC50 is > 25 µM (inactive).

In the case of `COc1ccc(CC(=O)Nc2nnc(Cc3ccc(OC)c(OC)c3)s2)cc1`, the EC50 was > 25 µM (inactive).

Turning to `O=C(NCCCN1CCOCC1)c1cc(-c2ccco2)nc2ccccc12`, the EC50 is > 25 µM (inactive).

As for `Cc1cccc(NC(=O)c2cc(-c3ccco3)nc3ccccc23)n1`, the EC50 was > 25 µM (inactive).

Turning to `CCN(CC)C(=O)COc1ccc2c(-c3ccccc3)cc(=O)oc2c1`, the EC50 was > 25 µM (inactive).

In the case of `CN(CC(=O)Nc1ccc(F)cc1)C(=O)c1cc(-c2ccco2)nc2ccccc12`, the EC50 was > 25 µM (inactive).

For `O=C(NC1CCC(O)CC1)c1cc(-c2ccco2)nc2ccccc12` (centres undefined), the EC50 is > 25 µM (inactive).

For `COc1ccc(Cc2nnc(NC(=O)Cc3ccc(N(C)C)cc3)s2)cc1OC`, the EC50 was > 25 µM (inactive).

For the compound `O=C(Nc1cccc(F)c1)c1cc(-c2ccco2)nc2ccccc12`, the EC50 was > 25 µM (inactive).

With `Cc1ccc(-c2cc(C(=O)Nc3ccccc3C)c3ccccc3n2)o1`, the EC50 is > 25 µM (inactive).

As for `COc1ccc(Cc2nnc(NC(=O)Cc3ccccn3)s2)cc1OC`, the EC50 was > 25 µM (inactive).

In the case of `CCCn1c(N)c(N(CCOC)C(=O)c2cc(-c3ccco3)nc3ccccc23)c(=O)[nH]c1=O`, the EC50 is > 25 µM (inactive).

Regarding `CCCCn1c(N)c(N(CC(C)C)C(=O)c2cc(-c3ccco3)nc3ccccc23)c(=O)[nH]c1=O`, the EC50 is > 25 µM (inactive).

With `Cc1ccc(-c2cc(C(=O)N3CCN(c4ccc(F)cc4)CC3)c3ccccc3n2)o1`, the EC50 was > 25 µM (inactive).

As to `Cc1ccc(-c2cc(C(=O)Nc3ccccc3C(N)=O)c3ccccc3n2)o1`, the EC50 is > 25 µM (inactive).

Regarding `Cc1ccc(-c2cc(C(=O)Nc3ccccn3)c3ccccc3n2)o1`, the EC50 is > 25 µM (inactive).

Take `COc1cccc(NC(=O)CN(C)C(=O)c2cc(-c3ccc(C)o3)nc3ccccc23)c1`: the EC50 was > 25 µM (inactive).

For the compound `O=C(Nc1ccccc1F)c1cc(-c2ccco2)nc2ccccc12`, the EC50 was > 25 µM (inactive).

In the case of `COc1ccc(Cc2nnc(NC(=O)C3(c4ccccc4)CC3)s2)cc1OC`, the EC50 is > 25 µM (inactive).

In the case of `CCN(CC)C(=O)COc1ccc2c(-c3ccc(OC)cc3)cc(=O)oc2c1C`, the EC50 was > 25 µM (inactive).

With `COc1cccc(NC(=O)CN(C)C(=O)c2cc(-c3ccco3)nc3ccccc23)c1`, the EC50 was > 25 µM (inactive).

In the case of `NS(=O)(=O)c1ccc(CCNC(=O)c2cc(-c3ccco3)nc3ccccc23)cc1`, the EC50 was > 25 µM (inactive).

Turning to `O=C(NC1CC1)c1cc(-c2ccco2)nc2ccccc12`, the EC50 was > 25 µM (inactive).

For the compound `COc1ccc(Cc2nnc(NC(=O)C(=O)c3ccco3)s2)cc1OC`, the EC50 is > 25 µM (inactive).

`CCC(=O)Nc1nnc(Cc2ccccc2)s1`: the EC50 is > 25 µM (inactive).

On to `COc1ccc(Cc2nnc(NC(=O)Cc3cccc(Br)c3)s2)cc1OC`, for which the EC50 is > 25 µM (inactive).

On to `CCOC(=O)c1cc(-c2ccco2)nc2c1c(C)nn2-c1cccc(Cl)c1`, for which the EC50 was > 25 µM (inactive).

In the case of `O=C(c1cc(-c2ccco2)nc2ccccc12)N(Cc1nnc(-c2ccc(Cl)cc2)o1)C1CC1`, the EC50 was > 25 µM (inactive).

For the compound `CC(=O)c1cccc(NC(=O)c2cc(-c3ccco3)nc3ccccc23)c1`, the EC50 was > 25 µM (inactive).

Turning to `CCN(CC)CCNC(=O)c1cc(-c2ccco2)nc2ccccc12`, the EC50 is > 25 µM (inactive).

As to `O=C(CCn1nnc2ccccc21)Nc1nnc(Cc2ccc(F)cc2)s1`, the EC50 was > 25 µM (inactive).

Take `O=C(c1cc(-c2ccco2)nc2ccccc12)N1CCN(c2ccc(F)cc2)CC1`: the EC50 is > 25 µM (inactive).

Consider `COc1ccc(Cc2nnc(NC(=O)Cc3cccs3)s2)cc1OC`, for which the EC50 was > 25 µM (inactive).

As to `O=C(Nc1cccc(S(=O)(=O)NC2=NCCC2)c1)c1cc(-c2ccco2)nc2ccccc12`, the EC50 was > 25 µM (inactive).

Take `COc1ccc(Cc2nnc(NC(=O)c3cc(-c4ccco4)nc4ccccc34)s2)cc1OC`: the EC50 was > 25 µM (inactive).

With `COc1ccc(Cc2nnc(NC(=O)Cc3ccc4ccccc4c3)s2)cc1OC`, the EC50 was > 25 µM (inactive).

Consider `COc1ccc(Cc2nnc(NC(=O)Cc3csc4ccccc34)s2)cc1OC`, for which the EC50 was > 25 µM (inactive).

For the compound `COCCN(C(=O)c1cc(-c2ccco2)nc2ccccc12)c1c(N)n(Cc2ccccc2)c(=O)[nH]c1=O`, the EC50 is > 25 µM (inactive).

With `Cc1ccc(-c2cc(C(=O)N(C)CC(=O)Nc3ccccc3Br)c3ccccc3n2)o1`, the EC50 is > 25 µM (inactive).

As for `COc1ccc(Cc2nnc(NC(=O)Cc3ccc(Oc4ccccc4)cc3)s2)cc1OC`, the EC50 was > 25 µM (inactive).

For `Cc1ccc(-c2cc(C(=O)N3CC(C)OC(C)C3)c3ccccc3n2)o1` (centres undefined), the EC50 was > 25 µM (inactive).

`Cc1ccc(-c2cc(C(=O)N3CC(C)CC(C)C3)c3ccccc3n2)o1` (centres undefined): the EC50 is > 25 µM (inactive).
